Reference: patent US20250205199A1, “5-METHOXY-N,N-[…][…] THE TREATMENT OF SOCIAL/EMOTIONAL […] DETACHMENT” (GH RESEARCH IRELAND LIMITED, priority 2022, published 2025)

Columns and labels:
[1] = system: patients with postpartum depression (PPD); experiment: Clinical trial of inhaled 5-MeO-DMT in postpartum depression (one patient so far)
Method: The single-arm, open-label clinical trial will involve 15 adult female patients with clinically diagnosed postpartum depression (PPD).
The second dose (12 mg) will only be administered if: • a. […] The 6 mg dose was safe and well-tolerated according to the investigator, • c. Any psychoactive effects (PsE) of the prior dose have subsided, and • d. Pre-dose vital parameters and forced expiratory volume in one second (FEV1) are in normal range, or if outside of the normal range, are not clinically significant according to the investigator. • 3. Similarly, a third dose (18 mg) will only be administered if: • a. […] The 12 mg dose was safe and well-tolerated according to the investigator, and • c. Any PsE of the prior dose have subsided, and • d. Pre-dose vital parameters and forced expiratory volume in one second (FEV1) are in normal range, or if outside of the normal range, are not clinically significant according to the investigator.
The patients will be assessed for a peak psychedelic experience (based on a patient-scored visual analogue scale, the PE scale), sedation, and other endpoints after dosing. Follow-up visits are planned for Day 1, and Day 7 after the dosing day.
The following criteria must be met by all patients considered for clinical trial participation: • 1. Is female and in the age range between 18 and 45 years (inclusive) at screening. • 2. Has a body mass index (BMI) in the range of 18.5 and 35 kg/m^2 (inclusive) at screening. • 3. Meets the trial criteria for PPD as assessed by a trial psychiatrist or registered psychologist: • a. Diagnosis of Major Depressive Disorder without psychotic features, confirmed by the Mini-International Neuropsychiatric Interview (MINI), with peri-partum onset that began no earlier than gestation and no later than the first 4 weeks postpartum. • b. Has a Montgomery-Åsberg Depression Rating Scale (MADRS) total score of equal to or greater than 28 at screening and pre-dose on Day 0. • 6. […] Patients must have a negative pregnancy test at screening and on the pre-test day (Day −1). • 5. Is willing to delay start of other antidepressant or anxiety medication until after the end of the trial at Day 7 and agrees to keep any psychotherapy unchanged during the trial.
A potential patient who meets any of the following key exclusion criteria will be excluded from participation in this trial: • 1. Has, based on history, psychiatric assessment, and evaluation of the MINI, a current or prior diagnosis of bipolar disorder, a manic or hypomanic episode, a psychotic disorder, Major Depressive Disorder (MDD) or other mood disorder with psychotic features, obsessive compulsive disorder, post-traumatic stress disorder (PTSD), autism spectrum disorder, borderline personality disorder, schizophrenia, delusional disorder, paranoid personality disorder, schizoaffective disorder, clinically significant intellectual disability, or any other psychiatric comorbidity that renders the patient unsuitable for the trial according to the investigator's judgment. • 2. Has one or more first or second degree relatives with a current or previously diagnosed bipolar disorder, psychotic disorder or other mood disorder (including MDD) with psychotic features. • 3. Is in the judgement of a trial psychiatrist or registered psychologist, at significant risk for suicide based on history, psychiatric assessment, and evaluation of suicidal ideation and suicidal behaviour based on the Columbia-Suicide Severity Rating Scale (C-SSRS). • 4. Has taken anti-depressive medication within 14 days or 5 half-lives (whichever is longer) prior to dosing (exception: within the last 5 weeks in the case of fluoxetine). • 5.

[2] = Pharmacokinetics of 5-MeO-DMT and bufotenine after inhalation; format: in vivo, human; conditions: for Plasma concentration as % of Cmax: whole dose range tested (6 mg, 12 mg, 18 mg)
Method: This applies over the whole dose range tested (6 mg, 12 mg, 18 mg). […] Uptitration as disclosed herein will not lead to accumulation and thus not to higher plasma concentrations, for instance, 10 minutes, 2 hours, or 3 hours after administration.
Blood samples were obtained at 1; 2; 4; 7; 10; 15; 20; 30; 45 min and 1; 1.5; 2; 3; 4 hours after administration.
PK parameters were generated by algebraic analysis of the concentration versus time plots for each individual. The analysis was carried out using the software Phoenix WinNonlin 6.3.

[3] = system: patients with treatment-resistant major depressive disorder (TRD); experiment: Phase 1/2 clinical trial of inhaled 5-MeO-DMT in patients with TRD
Method: Patients were assigned to different groups. In the context of the present invention, the group who received a single, 12 mg dose and the group who underwent an intra-day individualized dosing regimen (IDR) that allowed for multiple, escalating doses (6 mg, 12 mg and 18 mg) within a single day, driven by the intensity of the patient-reported psychedelic experience are of interest.
The data gathered include the assessment of the treated patients against several scales including the Montgomery-Åsberg Depression Rating Scale (MADRS) and the Brief Psychiatric Rating Scale (BPRS).
This trial was designed in two parts. Part A was an open-label, single-arm, single-dose Phase 1 trial with two dose levels (12 mg (n=4) and 18 mg (n=4)). […] The primary endpoint of Part B was to assess the effects on the severity of depression, as assessed by the proportion of patients in remission on day seven after dosing, defined as a MADRS total score of less than or equal to 10.

[4] = oral; cited from earlier work
[5] = system: patients with treatment resistant bipolar depression; conditions: single 0.5 mg·kg^−1 infusion; cited from earlier work
[6] = 12 mg n=4, 2 hours after dose, baseline 16

Structure (SMILES): COc1ccc2[nH]cc(CCN(C)C)c2c1 [5-MeO-DMT]
- ECG (3 hours), safety laboratory analyses (7 days), CADSS (3 hours, 1 day, 7 days) [1]: unremarkable
- Reported adverse events (cramping left abdominal pain and headache, Day 0) [1]: mild, short-lasting and resolved spontaneously
- Tolerability of the inhalation procedure [1]: well tolerated with no inhalation-related adverse events
- Total MADRS improvement ([1]; 2 hr, baseline 29): 24
- Total MADRS score ([1]; 2 hr, baseline 29): 5
- BPRS Tension improvement ([1]; Day 1, baseline 6): 5
- Total MADRS improvement ([1]; Day 1, baseline 29): 29
- Total MADRS score ([1]; Day 1, baseline 29): 0
- BIMF item 16 (I worry about how other people judge me (as a mother)) score ([1]; Day 7, Day 0 score 3): 5
- BIMF item 11 (I take a little time each week to do something for myself) score ([1]; Day 7, Day 0 score 5): 6
- BIMF functional domain Adjustment score ([1]; Day 7, Day 0 score 5, maximum possible 12): 6
- BIMF functional domain Self-Care score ([1]; Day 7, Day 0 score 9, maximum possible 18): 13
- BIMF functional domain Infant Care score ([1]; Day 7, Day 0 score 12, maximum possible 12): 12
- BIMF functional domain Mother-Child Interaction score ([1]; Day 7, Day 0 score 15, maximum possible 18): 17
- BIMF functional domain Social Support score ([1]; Day 7, Day 0 score 17, maximum possible 18): 18
- BIMF functional domain Management score ([1]; Day 7, Day 0 score 28, maximum possible 36): 33
- BIMF functional domain Psychological Well-being score ([1]; Day 7, Day 0 score 44, maximum possible 60): 53
- Total MADRS improvement ([1]; Day 7, baseline 29): 28
- Total MADRS score ([1]; Day 7, baseline 29): 1
- BIMF total score improvement ([1]; Day 7, from 92 to 105 of possible 120): 14%
- BIMF TOTAL Δ (Day 7) ([1]; Day 7 vs Day 0): 13
- BIMF functional domain Adjustment % Improvement ([1]; Day 7 vs Day 0): 20.00%
- BIMF functional domain Infant Care % Improvement ([1]; Day 7 vs Day 0): 0.00%
- BIMF functional domain Management % Improvement ([1]; Day 7 vs Day 0): 18%
- BIMF functional domain Self-Care % Improvement ([1]; Day 7 vs Day 0): 44%
- BPRS Tension improvement ([1]; Discharge, baseline 6): 5
- Standard criteria for MADRS response (at least 50% improvement) and MADRS remission (total score <=10) ([1]; IDR 6 mg then 12 mg): fulfilled
- Time to clinical remission after administration ([1]; IDR 6 mg then 12 mg): ≤ 2 h
- Changes in vital parameters ([1]; except temporary, clinically non-relevant increase in heart rate and blood pressure shortly after administration): no other noteworthy changes in vital parameters
- Plasma concentration as % of Cmax ([2]; 10 minutes after inhalation): ≤ 10%
- Plasma concentration as % of Cmax ([2]; 2 hours after inhalation): ≤ 1%
- Detectability in the plasma ([2]; 3 hours after inhalation, whole dose range tested): no longer detectable
- Pharmacokinetic measurements under uptitration dosing schemes versus single doses ([2]; dosing schemes relying on uptitration): Substantially similar results
- MADRS Suicidal Thoughts improvement ([3]; 12 mg n=4, 2 hours after dose, baseline 8): 5 points
- MADRS Inner Tension improvement ([3]; 12 mg n=4, 2 hours after dose, baseline 13): 11
- MADRS Concentration Difficulties improvement [3, 6]: 9
- MADRS Inability to Feel improvement [3, 6]: 7 points
- MADRS Lassitude improvement [3, 6]: 6
- MADRS Pessimistic Thoughts improvement [3, 6]: 8
- BPRS Blunted Affect improvement ([3]; 12 mg n=4, 3 hours after dose, baseline 11): 3 points
- BPRS Emotional Withdrawal improvement ([3]; 12 mg n=4, 3 hours after dose, baseline 13): 2 points
- BPRS Tension improvement ([3]; 12 mg n=4, 3 hours after dose, baseline 14): 5
- BPRS Guilt Feelings improvement ([3]; 12 mg n=4, 3 hours after dose, baseline 18): 9
- BPRS Anxiety improvement ([3]; 12 mg n=4, 3 hours after dose, baseline 25): 14
- MADRS Inner Tension improvement ([3]; 12 mg n=4, day 1, baseline 13): 10
- BPRS Tension improvement ([3]; 12 mg n=4, day 1, baseline 14): 8
- MADRS Concentration Difficulties improvement ([3]; 12 mg n=4, day 1, baseline 16): 14
- MADRS Lassitude improvement ([3]; 12 mg n=4, day 1, baseline 16): 16
- MADRS Pessimistic Thoughts improvement ([3]; 12 mg n=4, day 1, baseline 16): 9
- BPRS Guilt Feelings improvement ([3]; 12 mg n=4, day 1, baseline 18): 13
- BPRS Anxiety improvement ([3]; 12 mg n=4, day 1, baseline 25): 19
- MADRS Reduced Sleep percentage improvement ([3]; 12 mg n=4, day 7, baseline 12): 50.00%
- MADRS Inner Tension improvement ([3]; 12 mg n=4, day 7, baseline 13): 8
- BPRS Tension improvement ([3]; 12 mg n=4, day 7, baseline 14): 8
- MADRS Concentration Difficulties improvement ([3]; 12 mg n=4, day 7, baseline 16): 13
- MADRS Lassitude improvement ([3]; 12 mg n=4, day 7, baseline 16): 13
- MADRS Pessimistic Thoughts improvement ([3]; 12 mg n=4, day 7, baseline 16): 8
- BPRS Guilt Feelings improvement ([3]; 12 mg n=4, day 7, baseline 18): 13
- BPRS Anxiety improvement ([3]; 12 mg n=4, day 7, baseline 25): 19
- MADRS Suicidal Thoughts improvement ([3]; IDR n=8, 2 hours after last dose, baseline 11): 8 points
- MADRS Inner Tension improvement ([3]; IDR n=8, 2 hours after last dose, baseline 26): 15
- MADRS Lassitude improvement ([3]; IDR n=8, 2 hours after last dose, baseline 27): 17
- MADRS Pessimistic Thoughts improvement ([3]; IDR n=8, 2 hours after last dose, baseline 28): 21
- MADRS Concentration Difficulties improvement ([3]; IDR n=8, 2 hours after last dose, baseline 30): 19
- MADRS Inability to Feel improvement ([3]; IDR n=8, 2 hours after last dose, baseline 36): 24 points
- BPRS Emotional Withdrawal improvement ([3]; IDR n=8, 3 hours after last dose, baseline 13): 5 points
- BPRS Blunted Affect improvement ([3]; IDR n=8, 3 hours after last dose, baseline 15): 4 points
- BPRS Tension improvement ([3]; IDR n=8, 3 hours after last dose, baseline 16): 5
- BPRS Guilt Feelings improvement ([3]; IDR n=8, 3 hours after last dose, baseline 34): 20
- BPRS Anxiety improvement ([3]; IDR n=8, 3 hours after last dose, baseline 37): 18
- BPRS Tension improvement ([3]; IDR n=8, day 1, baseline 16): 5
- MADRS Reduced Sleep percentage improvement ([3]; IDR n=8, day 1, baseline 25): 52.00%
- MADRS Inner Tension improvement ([3]; IDR n=8, day 1, baseline 26): 20
- MADRS Lassitude improvement ([3]; IDR n=8, day 1, baseline 27): 22
- MADRS Pessimistic Thoughts improvement ([3]; IDR n=8, day 1, baseline 28): 24
- MADRS Concentration Difficulties improvement ([3]; IDR n=8, day 1, baseline 30): 29
- BPRS Guilt Feelings improvement ([3]; IDR n=8, day 1, baseline 34): 23
- BPRS Anxiety improvement ([3]; IDR n=8, day 1, baseline 37): 21
- BPRS Tension improvement ([3]; IDR n=8, day 7, baseline 16): 6
- MADRS Reduced Sleep percentage improvement ([3]; IDR n=8, day 7, baseline 25): 64.00%
- MADRS Inner Tension improvement ([3]; IDR n=8, day 7, baseline 26): 14
- MADRS Lassitude improvement ([3]; IDR n=8, day 7, baseline 27): 24
- MADRS Pessimistic Thoughts improvement ([3]; IDR n=8, day 7, baseline 28): 25
- MADRS Concentration Difficulties improvement ([3]; IDR n=8, day 7, baseline 30): 21
- BPRS Guilt Feelings improvement ([3]; IDR n=8, day 7, baseline 34): 24
- BPRS Anxiety improvement ([3]; IDR n=8, day 7, baseline 37): 20
- SAEs ([3]; Part A): No SAEs
- Patients with MADRS remission (total score <=10) ([3]; Part A, 12 mg n=4, day seven): 50%
- Mean MADRS change from baseline ([3]; Part A, 12 mg, day seven): −21.0
- Mean MADRS change from baseline, percent ([3]; Part A, 12 mg, day seven): −65%
- Patients with MADRS remission (total score <=10) ([3]; Part A, 18 mg n=4, day seven): 25%
- Mean MADRS change from baseline, percent ([3]; Part A, 18 mg, day seven): −41%

Structure (SMILES): CCN(CC)C(=O)[C@@H]1C=C2c3cccc4[nH]cc(c34)C[C@H]2N(C)C1 [LSD, lysergic acid diethylamide]
- Duration of acute psychedelic effects [4]: several hours

Structure (SMILES): CN(C)CCc1c[nH]c2ccc(O)cc12 [bufotenine]
- Bufotenine concentrations when subjects receiving an uptitration scheme were included ([2]; uptitration scheme): Substantially similar observations

Structure (SMILES): CNC1(c2ccccc2Cl)CCCCC1=O (stereo not drawn) [ketamine]
- Duration of the anti-anhedonic effect [5]: up to 14 days
- Time until decrease of anhedonia took effect [5]: ≤ 40 min
